How the values were obtained:
ethanolic narcosis [1] = assay: Ethanolic narcosis period (ethanol 3.5 g./kg. i.p.); format: in vivo, Wistar rats; details: 1 h before ethanol 3.5 g./kg. i.p., n=10, control = 100 ± 6.5
Procedure: The effect of the compounds according to the invention on ethanolic narcosis was tested on male and female Wistar rats, each weighing 160 to 180 g., in groups of 10. The animals were fasted for 16 hours prior to treatment and were then administered various doses of the test compound, orally. One hour after treatment the rats were treated with 3.5 g./kg. of ethanol intraperitoneally (i.p.). The narcosis period of the animals was measured from the elapse of the righting reflex until a spontaneous correction of the body position. The average of the narcosis period and the percentage difference from the control were calculated. […] The control group was treated with a placebo and a […]. dose of ethanol.

[2] = tested on: hyperactivity induced by ethanol; assay: Hyperactivity induced by ethanol (locomotor activity, Animex BSE motimeter); format: in vivo, BALB/c mice; details: n=15
Procedure: The effect of the compounds on hyperactivity induced by ethanol was tested on male and female BALB/c mice, each weighing 16 to 18 g. The test materials were administered to groups of 15 orally, one hour before administering the placebo orally or a 2 g./kg. dose of ethanol intraperitoneally. The control animals were treated with the placebo. The locomotor activity of the animals was measured for two hours, using an Animex BSE motimeter.

ethanolic ataxia = assay: Ethanolic ataxia and muscular tension on rotating rod; format: in vivo, BALB/c mice; details: n=10
Procedure: The effect of the compounds according to the invention on ethanolic ataxia and the change of muscular tension was tested on rotating rods. Trained and selected male and female BALB/c mice weighing 16 to 18 g. each were administered a 40 mg./kg. oral dose of the test compounds one hour before intraperitoneal administration of 2.5 g./kg. of ethanol. The time until the animals could remain on the rod was measured 60, 90 and 120 minutes after the ethanolic treatment. This time was 120 minutes for the animals with intact coordination. The results are summarized in Table 3, where the percentage of the animals remaining on the rotating rod is indicated.

[3] = tested on: catalepsy induced by tetrabenazine; assay: Inhibition of catalepsy induced by tetrabenazine; format: in vivo, Hann.-Wistar rats; details: Rattus norvegicus, po; rats; orally, 60 minutes before tetrabenazine 30 mg./kg. i.p.; probit analysis
Procedure: (§1) To determine the antidepressive activity of the compounds provided by the invention the inhibition of catalepsy induced by tetrabenazine and the inversion of hypothermia induced by reserpin were measured. The anticholinergic activity was tested by determining the inhibition of tremor induced by oxotremorin. As a reference compound imipramine was used.

[4] = tested on: hypothermia induced by reserpin; assay: Inversion of reserpin-hypothermia (antireserpin activity); format: in vivo, male CFLP mice; details: Mus musculus, po; mice; orally, 16 hours after reserpin 5 mg./kg. i.p.; dose increasing body temperature by 50%
Procedure: as §1
The inversion of reserpin-hypothermia was tested on male CFLP mice, weighing 18 to 22 g. each and treated with a 5 mg./kg. dose of reserpin intraperitoneally. 16 hours after treatment the animals were administered various doses of the test compounds, orally. The rectal temperature of the animals was measured before the reserpin treatment, 16 hours after treatment and 2 hours after the administration of the test compounds.

[5] = tested on: tremor induced by oxotremorin; assay: Anticholinergic activity: inhibition of tremor induced by oxotremorin; format: in vivo, male CFLP mice; details: mice, oral; for ED50: Mus musculus, oxotremorin 0.5 mg./kg. i.p., read-out: Oxotremorin inh. (ED50); for Oxotremorin inh. (result in words): remark to the printed 160.0 mg./kg.
Procedure: as §1
The anticholinergic activity was tested on male CFLP mice, weighing 18 to 22 g. each, which were treated with a 0.5 mg./kg. dose of oxotremorin (i.p.) and after 60 minutes with various oral doses of the test compounds.

Acute toxicity = details: rat, in vivo; rats; single 500 mg./kg. oral dose; observed for 14 hours; read-out: Toxicity, dead animals (%)
Procedure: The acute toxicity of the compounds according to the invention was determined on Hann.-Wistar rats of both sexes, weighing 160 to 180 g. each, which had been treated with a single 500 mg./kg. dose of the test compounds, orally. […] In Table 4 the percentage of the dead animals is given.

ethanolic narcosis [6] = details: known effect of the reference material; cited from earlier work

## CCN(CC)CCCOc1ccc(C(O)(CC)c2cccc(C(F)(F)F)c2)cc1 (stereo not drawn) [A, 3-trifluoromethyl-4'-[3-(diethylamino)-propoxy]-α-ethyl-benzhydrol]
Ethanolic narcosis [1]; 10.0 mg./kg. orally
  Ethanolic narcosis period (Control ± S.E. %): 52 ± 11.1%
Ethanolic narcosis [1]; 40.0 mg./kg. orally
  Ethanolic narcosis period (Control ± S.E. %): 40 ± 5.0%

## CCN(CC)CCOc1ccc(C(O)(CC)c2ccc(Cl)cc2)cc1 (stereo not drawn) [B, 4-chloro-4'-[2-(diethylamino)-ethoxy]-α-ethyl-benzhydrol]
Ethanolic narcosis [1]; 10.0 mg./kg. orally
  Ethanolic narcosis period (Control ± S.E. %): 48 ± 9.5%
Ethanolic narcosis [1]; 40.0 mg./kg. orally
  Ethanolic narcosis period (Control ± S.E. %): 39 ± 4.5%
[2]; compound 10.0 mg./kg. orally + ethanol 2000.0 mg./kg. i.p., ethanol + placebo 190 ± 12.2
  Locomotor activity (2 hours): 110 ± 8.1 percentage of the control
[2]; compound 10.0 mg./kg. orally + placebo (no ethanol), placebo control 100 ± 8.1
  Locomotor activity (2 hours): 110 ± 15.2 percentage of the control
Ethanolic ataxia; compound 40.0 mg./kg. orally + ethanol 2500.0 mg./kg. i.p., 60 minutes, ethanol alone 10
  % of the animals remaining on the rod: 40%
Ethanolic ataxia; compound 40.0 mg./kg. orally + ethanol 2500.0 mg./kg. i.p., 90 minutes, ethanol alone 40
  % of the animals remaining on the rod: 70%
Ethanolic ataxia; compound 40.0 mg./kg. orally + ethanol 2500.0 mg./kg. i.p., 120 minutes, ethanol alone 50
  % of the animals remaining on the rod: 90%
Ethanolic ataxia; compound 40.0 mg./kg. orally, no ethanol, 60 minutes
  % of the animals remaining on the rod: 100%
Ethanolic ataxia; compound 40.0 mg./kg. orally, no ethanol, 90 minutes
  % of the animals remaining on the rod: 100%
Ethanolic ataxia; compound 40.0 mg./kg. orally, no ethanol, 120 minutes
  % of the animals remaining on the rod: 100%

## CCN(CC)CCOc1ccc(C(O)(CC)c2ccc(C(F)(F)F)cc2)cc1 (stereo not drawn) [C, 4-trifluoromethyl-4'-[2-(diethylamino)-ethoxy]-α-ethyl-benzhydrol]
[3]
  ED50: 20 mg/kg
[4]
  ED50: 30 mg/kg
[5]
  ED50: 160 mg/kg
  Oxotremorin inh. (result in words): ineffective
Acute toxicity
  mortality at 14 h: 0%

## CCN(CC)CCCOc1ccc(C(O)(CC)c2cccc(Cl)c2)cc1 (stereo not drawn) [D, 3-chloro-4'-[3-(diethylamino)-propoxy]-α-ethyl-benzhydrol]
[3]
  ED50: 18.8 mg/kg
[4]
  ED50: 17 mg/kg
[5]
  ED50: 160 mg/kg
  Oxotremorin inh. (result in words): ineffective
Acute toxicity
  mortality at 14 h: 0%

## CN(C)CCCN1c2ccccc2CCc2ccccc21 [Imipramine, reference compound]
[3]
  ED50: 13.7 mg/kg
[4]
  ED50: 15 mg/kg
[5]
  ED50: 50 mg/kg
Acute toxicity
  mortality at 14 h: 80%

## N[C@@H](CS)C(=O)O [L-cysteine, reference compound]
Ethanolic narcosis [1]; 500.0 mg./kg. orally
  Ethanolic narcosis period (Control ± S.E. %): 63 ± 4.2%
Ethanolic narcosis [6]
  alcoholic narcosis reducing effect: known to have an alcoholic narcosis reducing effect
